Data on three compounds can be found in US20250195524A1, “PYRIMIDO-PYRIDAZINONE COMPOUND AS TOLL-LIKE RECEPTOR AGONIST” (SHANGHAI VISONPHARMA CO., LTD., priority 2022, published 2025).

Broadly, the EC50 is the concentration needed to bring the measured effect to its halfway point. Higher therefore signals a need for much substance.

The target in one experiment is T1, human TLR8 (Homo sapiens, UniProt Q9NR97).
T1 construct: host or cells: HEK-Blue hTLR8 (HEK293-derived reporter cells)
T1 sequence (Q9NR97 27-1041): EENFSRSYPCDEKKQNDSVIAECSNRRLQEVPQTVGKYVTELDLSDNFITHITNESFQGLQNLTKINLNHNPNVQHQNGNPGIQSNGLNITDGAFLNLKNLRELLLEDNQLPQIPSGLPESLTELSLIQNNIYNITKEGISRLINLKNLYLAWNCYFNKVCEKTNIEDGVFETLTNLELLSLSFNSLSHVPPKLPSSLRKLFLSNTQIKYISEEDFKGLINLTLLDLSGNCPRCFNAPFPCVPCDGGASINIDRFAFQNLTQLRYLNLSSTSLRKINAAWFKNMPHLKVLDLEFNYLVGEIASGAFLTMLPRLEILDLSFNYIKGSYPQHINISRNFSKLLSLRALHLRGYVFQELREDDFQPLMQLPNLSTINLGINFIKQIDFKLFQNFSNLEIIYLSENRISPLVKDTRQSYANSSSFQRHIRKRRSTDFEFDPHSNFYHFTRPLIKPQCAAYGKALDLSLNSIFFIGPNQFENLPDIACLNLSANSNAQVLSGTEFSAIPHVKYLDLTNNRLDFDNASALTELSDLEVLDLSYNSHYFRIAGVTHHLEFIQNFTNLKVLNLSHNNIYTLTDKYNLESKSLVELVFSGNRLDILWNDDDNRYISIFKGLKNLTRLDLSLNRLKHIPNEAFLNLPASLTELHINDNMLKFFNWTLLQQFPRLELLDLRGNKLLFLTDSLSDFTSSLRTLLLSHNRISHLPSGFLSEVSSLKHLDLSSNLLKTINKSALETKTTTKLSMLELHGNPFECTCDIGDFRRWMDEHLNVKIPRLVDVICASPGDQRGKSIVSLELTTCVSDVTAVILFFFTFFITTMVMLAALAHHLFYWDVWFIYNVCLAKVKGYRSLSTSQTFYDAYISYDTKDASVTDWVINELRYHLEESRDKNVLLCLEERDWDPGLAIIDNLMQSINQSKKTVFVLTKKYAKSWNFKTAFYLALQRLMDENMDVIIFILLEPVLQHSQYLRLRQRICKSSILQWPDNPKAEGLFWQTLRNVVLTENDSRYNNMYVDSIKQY
Description: HEK-Blue hTLR8 SEAP reporter gene agonism assay. The note with it: HEK-Blue hTLR8 cells, SEAP (Quanti-blue, 650 nm), 16-22 hours incubation. It counts as cell-based. As to the method:
(§1) The agonistic activity of the compounds of the present invention on TLR7 or TLR8 was evaluated using HEK-Blue™ cells stably expressing human TLR7 or TLR8. And the agonistic activity was assayed using their ability to induce the SEAP reporter gene under the control of the IFN-β minimal promoter fused to five NF-κB and ap-1 binding sites, specifically as follows:
(§2) HEK-Blue™ hTLR7 (Invivogen, 80,000 cells per well) or HEK-Blue™ hTLR8 (Invivogen, 60,000 cells per well) was added to a 96-well cell culture plate, the compound to be tested is added whereafter, and the final concentration of the compound(s) to be tested in the medium ranged from 0.001 to 36 μM, then incubated for 16-22 hours. SEAP levels in the cell culture medium were detected using HEK-Blue assay reagent Quanti-blue (Invivogen) according to the manufacturer's instructions. Neo2 Multifunctional Enzyme Labeler (Bio-tek) was used to determine the light absorption at 650 nm. GraphPad Prism was utilized to calculate the EC50, which is the half effective concentration of the drug.

The target of a further experiment is T2, human TLR7 (Homo sapiens, UniProt Q9NYK1).
T2 construct: host or cells: HEK-Blue hTLR7 (HEK293-derived reporter cells)
T2 sequence (Q9NYK1 27-1049): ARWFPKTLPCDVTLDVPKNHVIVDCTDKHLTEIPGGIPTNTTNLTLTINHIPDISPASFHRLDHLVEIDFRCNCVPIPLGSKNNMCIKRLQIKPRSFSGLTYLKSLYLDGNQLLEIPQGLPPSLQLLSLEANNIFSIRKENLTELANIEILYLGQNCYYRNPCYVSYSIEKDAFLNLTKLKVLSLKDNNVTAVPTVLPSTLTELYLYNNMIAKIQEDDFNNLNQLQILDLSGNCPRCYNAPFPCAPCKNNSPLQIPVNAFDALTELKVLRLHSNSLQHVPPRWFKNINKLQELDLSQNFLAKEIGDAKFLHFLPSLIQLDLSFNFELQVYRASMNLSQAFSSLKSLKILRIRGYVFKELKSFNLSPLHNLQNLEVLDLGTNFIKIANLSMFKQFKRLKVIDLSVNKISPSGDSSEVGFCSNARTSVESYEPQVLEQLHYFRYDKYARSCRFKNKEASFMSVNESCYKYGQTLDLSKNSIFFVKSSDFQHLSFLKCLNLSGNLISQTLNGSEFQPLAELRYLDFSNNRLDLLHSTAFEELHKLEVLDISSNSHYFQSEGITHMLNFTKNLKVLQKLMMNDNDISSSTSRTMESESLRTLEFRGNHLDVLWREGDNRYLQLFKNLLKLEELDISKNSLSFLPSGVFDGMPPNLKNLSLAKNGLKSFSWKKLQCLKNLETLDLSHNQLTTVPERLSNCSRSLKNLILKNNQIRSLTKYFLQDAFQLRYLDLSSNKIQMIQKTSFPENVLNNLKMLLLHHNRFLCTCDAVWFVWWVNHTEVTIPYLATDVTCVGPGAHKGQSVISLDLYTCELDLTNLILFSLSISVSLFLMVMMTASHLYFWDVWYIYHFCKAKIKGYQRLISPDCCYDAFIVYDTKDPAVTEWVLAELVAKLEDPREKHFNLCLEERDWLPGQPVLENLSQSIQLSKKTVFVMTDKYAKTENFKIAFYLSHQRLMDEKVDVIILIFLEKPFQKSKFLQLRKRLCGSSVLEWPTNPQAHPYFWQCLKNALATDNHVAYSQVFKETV
Description: HEK-Blue hTLR7 SEAP reporter gene agonism assay. It counts as cell-based. Particulars: HEK-Blue hTLR7 cells, SEAP (Quanti-blue, 650 nm), 16-22 hours incubation. As to the method:
as §1, §2
Background: In a reporter assay the amount or activity of a reporter protein is the signal.

Structures are written as SMILES.

In the case of `CCCN[C@@H](C)c1ccc(Cn2ncc3nc(N)nc(N[C@H](C)CCC)c3c2=O)cc1` [Compound I-52, 2-amino-4-(((R)-pentan-2-yl)amino)-6-(4-((S)-1-(propylamino)ethyl)benzyl)pyrimido[4,5-d]pyridazine-5(6H)-one], the half-maximal effective concentration (EC50) was determined as 125 nM on human TLR8 and 785 nM on human TLR7.
The like results for `CCC[C@@H](C)Nc1nc(N)nc2cnn(Cc3ccc(OCCNC)nc3OC)c(=O)c12` [Compound I-53, (R)-2-amino-6-((2-methoxy-6-(2-(methylamino)ethoxy)pyridin-3-yl)methyl)-4-(pentan-2-ylamino)pyrimido[4,5-d]pyridazin-5(6H)-one] were, in that order, 175 nM and 597 nM.
The like results for `CCC[C@@H](C)Nc1nc(N)nc2cnn(Cc3ccc(C4CCN(C)CC4)cc3)c(=O)c12` [Compound I-57, (R)-2-amino-6-(4-(1-methylpiperidin-4-yl)benzyl)-4-(pentan-2-ylamino)pyrimido[4,5-d]pyridazin-5(6H)-one] were, in that order, 107 nM and 407 nM.
